The target in the first experiment is T1, MELK (Homo sapiens, UniProt Q14680). The experiment is described as follows: Electrophoretic mobility (auto-phosphorylation) of MELK in nocodazole-arrested mitotic cells, immunoblotting. The experiment is classed as cell-based. The conditions noted are these: nocodazole-arrested mitotic cells (HeLa, MDA-MB-231), 30 min, increasing concentration. How it is done:
[…] assays were performed with recombinant protein of the indicated mitotic kinase (left) and AMPK family kinases (right) in the presence of THZ-4-63-1. […] Cells were treated with nocodazole (100 ng/ml) for 18 h or not treated (Asyn., asynchronous). Nocodazole-arrested mitotic cells (M) were isolated via shake-off. The attached cells enriched in G2 phase (G2) were harvested. A portion of the mitotic cells were washed off nocodazole and released into G1 phase after 4 hours of incubation (G1). […] In Panel D, mitotic lysates were prepared from the indicated cells, and treated with λ-phosphatase at 30° C. In Panel E, nocodazole-arrested mitotic cells were treated with increasing concentration of THZ-4-63-1 for 30 min. Cell lysates were subjected to immunoblotting.
(§1) Cell lysates were subjected to immunoblotting. […] The fluorescent signals of immunblotting were quantified using Image Studio Lite software (Licor Biosciences, Lincoln, Neb.). The signal of phosphorylated Aurora kinases was normalized to that of loading control (α-tubulin).
(§2) We next proceeded to test if THZ-4-63-1 inhibits MELK activity in vivo. With a lack of established kinase substrates of MELK during mitosis, we used the auto-phosphorylation of MELK as a surrogate to indicate the activity of MELK. […] We then harvested nocodazole-arrested mitotic cells, and treated cells with increasing concentrations of THZ-4-63-1.
T1 sequence (Q14680 whole entry): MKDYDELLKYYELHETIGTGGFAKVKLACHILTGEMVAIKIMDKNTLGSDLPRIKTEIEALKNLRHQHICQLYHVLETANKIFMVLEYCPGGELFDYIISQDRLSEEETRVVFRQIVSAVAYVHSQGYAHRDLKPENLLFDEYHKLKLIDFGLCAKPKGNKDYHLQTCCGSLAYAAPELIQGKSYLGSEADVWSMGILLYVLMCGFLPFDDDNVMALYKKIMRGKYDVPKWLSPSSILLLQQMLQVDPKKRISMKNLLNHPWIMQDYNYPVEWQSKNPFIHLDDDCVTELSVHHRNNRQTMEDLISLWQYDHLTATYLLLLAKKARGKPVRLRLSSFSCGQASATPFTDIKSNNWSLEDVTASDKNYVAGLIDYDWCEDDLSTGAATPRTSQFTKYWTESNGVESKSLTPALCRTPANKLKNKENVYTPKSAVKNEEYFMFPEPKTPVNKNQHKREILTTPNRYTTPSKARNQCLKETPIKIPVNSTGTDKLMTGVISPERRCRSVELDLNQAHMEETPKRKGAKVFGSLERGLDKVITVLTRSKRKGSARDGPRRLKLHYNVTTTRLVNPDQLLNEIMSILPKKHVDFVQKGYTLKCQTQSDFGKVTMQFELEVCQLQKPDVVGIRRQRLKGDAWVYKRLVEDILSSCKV
As to `O=C(O)c1ccc(Nc2ncc3c(n2)-c2ccc(Cl)cc2C(c2c(F)cccc2F)=NC3)cc1` [MLN8054, reference compound], the “Electrophoretic mobility of mitotic MELK” value is given as “does not alter the electrophoretic mobility of MELK”.

For the compound `O=C1NC(=NCc2cccs2)S/C1=C\c1ccc2ncccc2c1` [RO-3306, reference compound], the “Electrophoretic mobility of mitotic MELK” value is “does not change the electrophoretic mobility of MELK”.

For a further experiment, the system named is Histone H3 phosphorylation at Thr3. The experiment is described as follows: Histone H3 Thr3 phosphorylation in arrested mitotic cells, immunoblotting. Type of experiment: cell-based. The note with it: paclitaxel- or nocodazole-arrested mitotic cells, 30 min, with MG132. On the procedure:
Cell lysates were prepared for immunoblotting. […] HeLa cells were treated with DMSO or THZ-4-63-1 (5 μM) for 4 h followed by 1 h treatment of MG132 (10 μM). Cells were fixed and stained with anti-H3T3ph and anti-CREST. […] Cells were treated as in FIG. 2, Panel D, and additionally treated with MG132 (10 μM) for 1 h before fixation. The histogram indicates the quantification of H3S10ph signal. […] MCF-10A cells stably expressing empty vector (EV) or MELK were fixed for immunostaining. Images were captured with identical exposure time. H3T3ph intensity was quantified by the use of ImageJ. […] Recombinant MELK protein (kinase domain) was incubated with recombinant Histone H3 for 30 min at 30° C. Samples were subjected to immunoblotting using the indicated antibodies. […] Cells stably expressing GFP-MELK were fixed by formaldehyde and stained with anti-H3S10ph. […] Asynchronized (Async.) or nocodazole-arrested mitotic cells were subjected to fractionation, with sample prepared for immunoblotting. Panels H and I are images showing that MELK inhibition impairs the localization of chromosome passenger complex (CPC), indicated by the immunofluorescence detecting Survivin (G) and Aurora B (H). In addition to the presence of doxycyclin or THZ-4-63-1, cells were treated with nocodazole (0.33 μM) and MG132 (10 μM) for 3 h before fixation.
Cell lysates were prepared for immunoblotting. […]
In general terms: Immunoblotting shows a protein as a band on a membrane.
For `Cc1cc(Nc2cc(N3CCN(C)CC3)nc(Sc3ccc(NC(=O)C4CC4)cc3)n2)n[nH]1` [VX-680, reference compound], the “Histone H3 phosphorylation at Thr3” value is “inhibition of the downstream Histone H3 phosphorylation at Thr3”.

The subject of the next experiment is MDA-MB-468. The experiment is described as follows: Cell growth with paclitaxel combination in MDA-MB-468. The experiment is classed as cell-based, human. The conditions noted are these: 2 nM. On the procedure:
Mitotic cells were treated with THZ-4-63-1 at indicated concentrations for 4 h. Cells were collected for immunoblotting. Panel B contains time-lapse images of U2OS-(H2B-GFP) cells treated with THZ-4-63-1 (5 μM). […] Panel C contains blots showing proteasome-mediated degradation of Cyclin B1, Aurora B and MELK in THZ-4-63-1-induced mitotic slippage. Mitotic cells were treated as in Panel A with THZ-4-63-1 (5 μM), or MG132 (10 μM), or both for 4 h. Panel D contains a graph showing quantification of cell proliferation in the indicated breast cancer cell lines, which were treated with vehicle control or THZ-4-63-1 for one week (Top) and also contains bright-field images acquired from control cells or cells treated with THZ-4-63-1 (111 nM) (Bottom). […] Cells were treated with indicated drugs, and harvested in ten days for quantification of cell growth. The bold curve depicts the theoretic prediction of an additive action between paclitaxel and THZ-4-63-1.
Because microtubule-targeting chemotherapy is the mainstay of treatment for many types of cancer including basal-like breast cancer, we asked if MELK inhibition could combine with drugs that impair microtubule dynamics. […]
Consider `CC(=O)O[C@H]1C(=O)[C@@]2(C)[C@H]([C@H](OC(=O)c3ccccc3)[C@]3(O)C[C@H](OC(=O)[C@H](O)[C@@H](NC(=O)c4ccccc4)c4ccccc4)C(C)=C1C3(C)C)[C@]1(OC(C)=O)CO[C@@H]1C[C@@H]2O` [paclitaxel, reference compound], for which the “Reduction of cell proliferation, paclitaxel alone” value is listed as “half reduction”.

The target in a further experiment is T1, MELK. The experiment is described as follows: Z′-LYTE biochemical assay, MELK inhibition. The arrangement: purchased Life Technologies. The note with it: 25 uM ATP concentration; read-out: MELK IC50 as determined by Z′-LYTE biochemical assay. On the procedure:
The invention also provides methods for inhibiting MELK, comprising contacting MELK with a compound of the invention in an amount effective to inhibit MELK. In certain embodiments, the method is conducted in vitro. In certain embodiments, the method is conducted in vivo. Inhibition of MELK can be determined by the Z′-LYTE® biochemical assay from Life Technologies (Life Technologies Z′-LYTE® Screening Protocol and Assay Conditions, June 2012, incorporated herein by reference).
Generally, IC50 against MELK was determined by Z′-LYTE® biochemical assay and are measured in nM at 25 uM ATP concentration.
In general, IC50 refers to the concentration that gives 50% inhibition. As for `O=c1ccc2cnc3ccc(-c4cc(Cl)c(O)c(Cl)c4)cc3c2n1-c1ccc(N2CCNCC2)c(C(F)(F)F)c1` [Compound 01-045], the IC50 was 7.63 nM. The same measure, in the same setting: in the case of `CC(=O)N1CCN(c2ccc(-n3c(=O)ccc4cnc5ccc(-c6cc(Cl)c(O)c(Cl)c6)cc5c43)cc2C(F)(F)F)CC1` [Compound 01-071] it was 294 nM.

Take `CN(C)C[C@H]1CC[C@H](n2c(=O)ccc3cnc4ccc(-c5cc(Cl)c(O)c(Cl)c5)cc4c32)CC1` [Compound 01-087, 9-(3,5-dichloro-4-hydroxyphenyl)-1-(trans-4-((dimethylamino)methyl)cyclohexyl)benzo-[h][1,6]naphthyridin-2(1H)-one]: the IC50 was determined as 9.6 nM.

For `O=C1NCc2cnc3ccc(-c4cc(Cl)c(O)c(Cl)c4)cc3c2N1c1ccc(N2CCNCC2)c(C(F)(F)F)c1` [Compound 01-088], the IC50 worked out at 5.48 nM.

`CN(C)C[C@H]1CC[C@H](N2C(=O)NCc3cnc4ccc(-c5cc(Cl)c(O)c(Cl)c5)cc4c32)CC1` [Compound 01-091, 9-(3,5-dichloro-4-hydroxyphenyl)-1-(trans-4-((dimethylamino)methyl)cyclohexyl)-3,4-dihydropyrimido[5,4-c]quinolin-2(1H)-one]: the 50% inhibitory concentration (IC50) was 10.5 nM.

For the compound `O=c1ccc2cnc3ccc(-c4cccc(O)c4)cc3c2n1-c1ccc(N2CCNCC2)c(C(F)(F)F)c1` [Compound 01-092], the IC50 amounted to 146 nM. Still for that read-out and setting: with `O=C1NCc2cnc3ccc(-c4cc(Cl)c(O)c(Cl)c4)cc3c2N1c1ccc(N2CCNCC2)cc1` [Compound 01-100] the figure was 2.16 nM; with `O=c1ccc2cnc3ccc(-c4ccc(CO)cc4)cc3c2n1-c1ccc(N2CCNCC2)c(C(F)(F)F)c1` [Compound 01-101], 119 nM; with `CN(C)C[C@H]1CC[C@H](N2C(=O)NCc3cnc4ccc(-c5ccc(NS(C)(=O)=O)cc5)cc4c32)CC1` [Compound 01-131], 4990 nM. On the same count and under the same terms, in the case of `CN(C)Cc1ccc(N2C(=O)NCc3cnc4ccc(-c5cc(Cl)c(O)c(Cl)c5)cc4c32)cc1` [Compound 01-144] it was 9.4 nM; in that of `CN(C)CC1CCC(CN2C(=O)NCc3cnc4ccc(-c5cc(Cl)c(O)c(Cl)c5)cc4c32)CC1` (stereo not drawn) [Compound 02-020], 404 nM. For `CN(C)C[C@H]1CC[C@H](n2c(=O)[nH]c3cnc4ccc(-c5cc(Cl)c(O)c(Cl)c5)cc4c32)CC1` [Compound 02-022, 8-(3,5-dichloro-4-hydroxyphenyl)-1-(trans-4-((dimethylamino)methyl)cyclohexyl)-1,3-dihydro-2H-imidazo[4,5-c]quinolin-2-one], the half-maximal inhibitory concentration (IC50) is 1.85 nM. Still for that read-out and setting: with `CN1CCC(CN2C(=O)NCc3cnc4ccc(-c5cc(Cl)c(O)c(Cl)c5)cc4c32)CC1` [Compound 02-029] the figure was 386 nM; with `CN(C)C[C@H]1CC[C@H](n2c(=O)n(C)c3cnc4ccc(-c5cc(Cl)c(O)c(Cl)c5)cc4c32)CC1` [Compound 02-084, 8-(3,5-dichloro-4-hydroxyphenyl)-1-(trans-4-((dimethylamino)methyl)cyclohexyl)-3-methyl-1,3-dihydro-2H-imidazo[4,5-c]quinolin-2-one], 2.16 nM. Still for that read-out and setting: in the case of `CN(C)C[C@H]1CC[C@H](N2C(=O)N(C)Cc3cnc4ccc(-c5cc(Cl)c(O)c(Cl)c5)cc4c32)CC1` [Compound 02-095, 9-(3,5-dichloro-4-hydroxyphenyl)-1-(trans-4-((dimethylamino)methyl)cyclohexyl)-3-methyl-3,4-dihydropyrimido[5,4-c]quinolin-2(1H)-one] it was 27.1 nM.

Consider `CN(C)C[C@H]1CC[C@H](N2C(=O)N(C)Cc3cnc4ccc(-c5cc(Cl)c(O)c(Cl)c5)nc4c32)CC1` [Compound 02-096], for which the IC50 turned out to be 2.8 nM.

A further experiment concerns Aurora kinases. Nature of the experiment: Aurora kinase phosphorylation in mitotic cells, immunoblotting. Type of experiment: cell-based. The note with it: 30 min. On the procedure:
as §1
Cell lysates were prepared for immunoblotting. In Panels B and C, THZ-4-63-1 inhibits H3T3 phosphorylation in HeLa (B) and U2OS (C) cells. Nocodazole arrested mitotic cells were treated with THZ-4-63-1 at the indicated doses for 30 min. […] Cell lysates were subjected to immunblotting. The signal of H3T3 phosphorylation was normalized to that of α-tubulin (right).
as §2
We exposed paclitaxel- or nocodazole-arrested mitotic cells to the individual inhibitor for 30 min in the presence of MG132, and collected lysates for examining signaling involved in chromosome alignment. […] Recent studies unravel a novel role of Aurora B in phosphorylating Haspin^7, a major factor responsible for phosphorylating Histone H3 at Thr3^14. […]
On to `Cc1cc(Nc2cc(N3CCN(C)CC3)nc(Sc3ccc(NC(=O)C4CC4)cc3)n2)n[nH]1` [VX-680, reference compound], for which the “Phosphorylation of Aurora kinases” value is recorded as “efficiently suppressed the auto-phosphorylation of Aurora kinases”.

Values taken from patent US10544138B2, “Tricyclic kinase inhibitors of MELK and methods of use” (Dana-Farber Cancer Institute, Inc., priority 2015, dated 2020).
